Test results reported in US20220348590A1, “CYCLOOXYGENASE-2 INHIBITORS AND USES THEREOF” (The Board Institute, Inc., priority 2019, published 2022).
pIC50: −log10 of the molar value. Converted amounts (≈) assume the structure as drawn. Read-outs that look alike come from different tables or passages of the source.

Experiments:
[1] = Human Plasma Protein Stability (% Remaining); type: in vitro ADME; settings: average
[2] = rat plasma protein binding (PPB) assay; type: in vitro ADME; settings: average, read-out: Rat Plasma Protein Binding % Bound Avg (converted)
Description: (§1) We have adapted a previously reported cyclooxygenase enzymatic assay utilizing LCMS quantification of PGE2 as the product of COX-1 and COX2 catalyzed conversion of arachidonic acid to evaluate the binding properties of newly synthesized ligands [Cao, 2011]. These optimized and miniaturized (384-well plates) LCMS-based COX-1 and COX2 enzymatic assays enabled us to quickly evaluate newly synthesized ligands for COX2 binding affinity and selectivity vs COX-1. Using a shorter ligand-enzyme incubation time in the LCMS assay (2 minutes vs 10 minutes) also permitted us to prioritize ligands with faster binding kinetics. Considering the relatively slow on-rate kinetics of known coxibs, due to their 3-step binding mechanism [Marnett, 2009], we believe that optimizing this critical parameter will be key to the successful development of a COX2 PET tracer. Using these enzymatic assays, we have evaluated>200 newly synthesized ligands against COX2 and >20 ligands against COX-1. Another critical property necessary for a good PET radiotracer is to have low non-specific binding (NSB) to increase the free fraction and maximize the signal to noise ratio. This property can be evaluated using in-vitro protein binding assays, and we have now evaluated>50 newly synthesized ligands in mouse, rat and human plasma protein binding (PPB) assays as well as >15 ligands in a mouse brain protein binding (BPB) assay.

[3] = Rat Plasma Protein Stability (% Remaining); type: in vitro ADME; settings: average
[4] = target: T1, human recombinant COX2 (hCOX2) (UniProt P35354); test: LCMS-based COX2 enzymatic inhibition assay (PGE2 quantification); type: biochemical; parameters: COX2 2 minutes pge2/pge2d4 area ratio Avg; other: 2 minutes; readout pge2/pge2d4 area ratio; average; COX2 2 minutes pge2/pge2d4 area ratio Avg; LLE; average LLE; COX2 2 minutes pge2 area (counts) Avg; readout pge2 area (counts); other: 2 min; "ovine COX2 (oCOX2), human recombinant COX2 (hCOX2)"; settings: for pIC50: average; for COX2 2 minutes pge2/pge2d4 area ratio Avg. LLE / COX2 2 minutes pge2 area (counts) Avg. LLE / COX2 10 minutes pge2 area (counts) Avg. LLE: average LLE
T1 sequence (P35354 1-604): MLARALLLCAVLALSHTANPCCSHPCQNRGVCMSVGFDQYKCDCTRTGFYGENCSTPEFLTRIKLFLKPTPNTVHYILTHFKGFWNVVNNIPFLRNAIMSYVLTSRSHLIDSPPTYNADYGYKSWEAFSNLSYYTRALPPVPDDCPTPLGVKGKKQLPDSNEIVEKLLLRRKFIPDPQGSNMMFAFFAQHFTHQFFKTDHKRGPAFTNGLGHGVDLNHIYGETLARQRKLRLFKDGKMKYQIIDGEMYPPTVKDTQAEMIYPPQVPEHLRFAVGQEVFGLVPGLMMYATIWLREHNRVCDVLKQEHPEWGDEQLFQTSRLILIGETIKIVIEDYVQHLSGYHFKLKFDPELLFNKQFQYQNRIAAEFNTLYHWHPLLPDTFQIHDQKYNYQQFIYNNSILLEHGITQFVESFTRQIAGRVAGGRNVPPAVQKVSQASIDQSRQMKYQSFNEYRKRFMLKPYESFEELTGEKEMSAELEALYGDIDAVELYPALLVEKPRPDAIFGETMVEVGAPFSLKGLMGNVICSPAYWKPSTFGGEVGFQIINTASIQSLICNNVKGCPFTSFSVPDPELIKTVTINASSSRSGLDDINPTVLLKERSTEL
Method in brief: (§2)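 Ovine COX-1 (0.1 μg) or human recombinant COX2 (0.2 μg) in 100 mM Tris.HCl pH 8.0 with hematin and epinephrine, preincubated with inhibitor 10 min at 37 °C. Reaction with 5 μM arachidonic acid stopped after 2 min with HCl; PGE2 quantified by LC-MS-MS. IC50 from 12 concentrations in triplicate.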

[5] = human plasma protein binding (PPB) assay; type: in vitro ADME; settings: average, read-out: Human Plasma Protein Binding % Bound Avg (converted)
Description: as §1

[6] = Human Microsome Stability; type: in vitro ADME; settings: human microsomes
PBS Solubility (no DMSO) = type: physicochemical; settings: aqueous buffer, thermodynamic from solid, average
ovine COX-1 (oCOX-1) = target: T2, ovine COX-1 (oCOX-1) (Ovis aries, UniProt P05979); test: LCMS-based COX-1 enzymatic inhibition assay (PGE2 quantification); type: biochemical; settings: 10 minutes
T2 construct: purchased Cayman Chemicals (Ann Arbor, Mich.)
T2 sequence (P05979 25-600): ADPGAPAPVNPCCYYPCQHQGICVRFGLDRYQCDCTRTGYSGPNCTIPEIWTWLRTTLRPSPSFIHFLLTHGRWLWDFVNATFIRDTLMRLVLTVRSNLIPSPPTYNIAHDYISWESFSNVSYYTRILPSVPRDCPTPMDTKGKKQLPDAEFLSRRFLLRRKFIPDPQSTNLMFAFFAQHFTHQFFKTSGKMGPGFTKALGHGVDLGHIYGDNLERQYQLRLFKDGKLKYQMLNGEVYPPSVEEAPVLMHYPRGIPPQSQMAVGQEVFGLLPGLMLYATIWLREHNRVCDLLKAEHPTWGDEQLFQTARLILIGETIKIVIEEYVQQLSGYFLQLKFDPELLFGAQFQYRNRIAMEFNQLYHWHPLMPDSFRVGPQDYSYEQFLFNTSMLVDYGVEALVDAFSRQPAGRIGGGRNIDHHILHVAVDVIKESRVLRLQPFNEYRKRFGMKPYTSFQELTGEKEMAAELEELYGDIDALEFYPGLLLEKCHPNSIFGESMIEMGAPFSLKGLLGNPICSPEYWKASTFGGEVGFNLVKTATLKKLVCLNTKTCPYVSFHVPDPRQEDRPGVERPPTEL
Method in brief: as §2

[7] = Mouse Plasma Protein Stability (% Remaining); type: in vitro ADME; settings: average
Rat Microsome Stability = type: in vitro ADME; settings: rat microsomes
[8] = mouse plasma protein binding (PPB) assay; type: in vitro ADME; settings: average, read-out: Mouse Plasma Protein Binding % Bound Avg (converted)
Description: as §1

MDR1 = test: MDR1-MDCKII permeability and efflux; type: in vitro ADME; settings: dog, MDCK-MDR1
[9] = Mouse Microsome Stability; type: in vitro ADME; settings: mouse microsomes
[10] = 2 minutes, readout pge2/pge2d4 area ratio, read-out: COX2 2 minutes pge2/pge2d4 area ratio Avg. IC50
[11] = 2 minutes, readout pge2 area (counts), read-out: COX2 2 minutes pge2 area (counts) Avg. IC50
[12] = readout pge2/pge2d4 area ratio, average, read-out: COX1 10 minutes pge2/pge2d4 area ratio Avg. IC50
[13] = 2 minutes, readout pge2/pge2d4 area ratio
[14] = 2 minutes, readout pge2 area (counts)
[15] = pge2/pge2d4 area ratio, head of this section not shown, inferred
[16] = pge2 area (counts), head of this section not shown, inferred
[17] = pge2 area (counts), head of this section not shown, inferred, read-out: COX1 10 minutes pge2 area (counts) Avg. IC50
[18] = 10 minutes, readout pge2 area (counts)
[19] = 10 minutes, readout pge2 area (counts), read-out: COX2 10 minutes pge2 area (counts) Avg. IC50

Compound	Human Plasma Protein Stability % Remaining Avg [1] [%]	fraction unbound [2]	Rat Plasma Protein Stability % Remaining Avg [3] [%]	pIC50 [4, 10]	pIC50 [4, 11]	fraction unbound [5]	Human Microsome Stability % Remaining Avg [6] [%]	solubility (PBS Solubility (no DMSO)) [µM]	pIC50 (ovine COX-1 (oCOX-1); [12])	COX2 2 minutes pge2/pge2d4 area ratio Avg. LLE [4, 13]	COX2 2 minutes pge2 area (counts) Avg. LLE [4, 14]	COX1 10 minutes pge2 area (counts) Avg. LLE (ovine COX-1 (oCOX-1); [16])	COX2 10 minutes pge2 area (counts) Avg. LLE [4, 18]	pIC50 [4, 19]	Mouse Microsome Stability % Remaining Avg [9] [%]	also measured
CS(=O)(=O)c1ccc(-c2nc(OCc3cccs3)cc3ccoc23)cc1 [Compound 5]	102	0.001	99	8.22	8.15	0.001										
CS(=O)(=O)c1ccc(-c2cccc(OCc3ccsc3)n2)cc1 [Compound 9]	114	0.003	121	8.10	8.05	0.003	35	3.7 (≈ 1.28 µg/mL)	4.31	4.3	4.276					COX1 10 minutes pge2/pge2d4 area ratio Avg. LLE (ovine COX-1 (oCOX-1); readout pge2/pge2d4 area ratio, average LLE): 0.4674
COc1ncc(NCc2ccco2)nc1-c1ccc(S(C)(=O)=O)cc1 [Compound 43]		0.028	107.3	7.71	7.73			21 (≈ 7.55 µg/mL)		5.827	5.859					Mouse Plasma Protein Stability % Remaining Avg [7]: 102.6%; Rat Microsome Stability % Remaining Avg (Rat Microsome Stability): 11.1%; COX1 10 minutes pge2 area (counts) Avg. LLE (ovine COX-1 (oCOX-1); readout pge2 area (counts), average LLE): 2.44; pIC50 (ovine COX-1 (oCOX-1); readout pge2 area (counts), average, read-out: COX1 10 minutes pge2 area (counts) Avg. IC50): 4.37; fraction unbound [8]: 0.046
CS(=O)(=O)c1ccc(-c2nc(NCc3ccoc3)ccc2F)cc1 [Compound 48]	96	0.031	128	7.66	7.70	0.02	34	40 (≈ 13.9 µg/mL)								
CS(=O)(=O)c1ccc(-c2cnc3ccn(Cc4cccs4)c3n2)cc1 [Compound 74]				7.36	7.32				6.52	3.899	3.894	2.996	5.561	9.03		efflux ratio (MDR1): 1; Papp A→B (MDR1; A-B, read-out: MDR1-MCKII Papp A-B): 32.2 ×10⁻⁶ cm/s; Papp B→A (MDR1; B-A, read-out: MDR1-MCKII Papp B-A): 32 ×10⁻⁶ cm/s; COX1 10 minutes pge2/pge2d4 area ratio Avg. LLE (ovine COX-1 (oCOX-1); [15]): 3.046; pIC50 (ovine COX-1 (oCOX-1); [17]): 6.47
CS(=O)(=O)c1ccc(-c2cncc(NCc3ccc(F)cc3)n2)cc1 [Compound 96]				7.13	7.07		54.9		4.47	4.85	4.897	2.128	5.83	8.10	30.5	COX1 10 minutes pge2/pge2d4 area ratio Avg. LLE (ovine COX-1 (oCOX-1); [15]): 2.186; pIC50 (ovine COX-1 (oCOX-1); [17]): 4.41
CS(=O)(=O)c1ccc(-c2cncc(NCc3ccco3)n2)cc1 [Compound 120]				6.93	6.91		32.4			5.371	5.44	2.724	6.397	7.94	1.6	
CS(=O)(=O)c1ccc(-c2cncc(NCc3cccs3)n2)cn1 [Compound 141]				6.67	6.75		55			5.497	5.579		6.4815	7.65	10	
